Reference: patent publication US20240099295A1, “CELL TREATMENT AGENT” (AYA Inc., priority 2021, published 2024)

Legend:
Type in all cases: cell-based
[1] = test system: Chinese hamster fibroblast; experiment: Cell protective effect: cell survival during preservation (trypan blue excretion test); settings: Chinese hamster fibroblasts; same preservation experiments; values not given
Description: Using a normal serum-free cell culture solution without FBS or a Ringer's solution (Otsuka Pharmaceutical Co., Ltd., Lactec Injection, Japanese Pharmacopoeia, Sodium L-lactate Ringer's solution) as a conditioning solution for use, for example, in preservation and transportation of cells, sodium alginate (Na alginate) (Fuji Chemical Industry Co., Ltd. Snow Algin SSL, viscosity of 1% aqueous solution is 30 mPa·s at 20° C.) was added to the conditioning solution in the concentrations shown in Table 1 to prepare cell preservation solutions. To each cell preservation solution, the above-described cells were added at a concentration of 10^6 cells/ml to satisfy the conditions shown in Table 1, and the resultant solution was left to stand in a room at normal temperature (22° C.) for 24 hours, and then whether cells were alive or dead was determined, and rates of viable cells (average survival rate (%)) were calculated and compared. Cell viability was determined by the trypan blue excretion test that is the ordinary method of confirming cell viability. The excretion test was performed according to the method described in “Denizot F., et al., Rapid colorimetric assay for cell growth and survival. Modifications to the tetrazolium dye procedure giving improved sensitivity and reliability. J. Immunol. Methods, 89, 271-277 (1986)”. The results are of N=4.
The average survival rate (%) was determined in the same manner as in Experimental Example (1-1-1) except that the preservation conditions were changed to leaving still for 72 hours in a refrigerator at a set temperature of 4° C. The results are of N=4.

[2] = test system: rat corneal epithelial cells; experiment: Re-adhesion of detached and suspended cells to calcium phosphate film (F-actin fluorescent staining)
Excerpt: Whether the cells having been detached and suspended as described above were re-adhered by calcium ions was examined. Part of the bottom of the culture dish was coated with a slurry of calcium phosphate fine powder mixed with distilled water and dried in an oven to separately prepare a culture dish in which a film of fine powder of calcium phosphate was stuck to the bottom of the dish. Then, to the culture dish with the calcium phosphate film and the culture dish without the film (control), a cell culture solution containing the detached and suspended cells as described above was added, the culture dishes were placed on the base of a shaker (product name: Laboshaker Model BC-740, available from BIO CRAFT Corporation), the shaking intensity was set to the lowest level, the shaking frequency was set to 4 times/min, and the cells were cultured under normal cell culture conditions (37° C., CO2 concentration of 5%, humidity of 100%) for 24 hours while the culture dishes were gently shaken. The culture solution in each culture dish was then removed, and the culture dishes were gently washed with 10% FBS cell culture solution, and then viable cells adhered to the inner wall of the culture dishes were observed under a microscope (inverted fluorescence/visible microscope with cooled CCD camera, IX83, available from Olympus Corporation) by the fluorescent staining method of F-actin using viable cell staining by a fluorescent dye (CytoPainter F-actin Staining Kit, available from Abcam). The fluorescent staining method of F-action can be performed, for example, according to the method described in Vera D M, Robert J E, Ved P S, Orrin S and John S C, “Optimizing leading edge F-actin labeling using multiple actin probes, fixation methods and imaging modalities” BIOTECHNIQUES, VOL. 66, NO. 3, (2019), or in Michael M, Matthias P and Robert G “Actin visualization at a glance” n J. Cell Sci. 130, 525-530. (2017) doi:10.1242/jcs.20448.
In FIGS. 1 to 4, the part that looks white or gray is a viable cell group stained with the fluorescent dye.

[3] = test system: human amnion-derived mesenchymal stem cells; experiment: Differentiation state maintenance: marker positive rate by flow cytometry; settings: DS 0.1 mg/mL in serum-free cell culture solution, 5 days of culture
Description: Using dextran sulfate (DS) as an active ingredient of the cell treatment agent, the cell dormancy effect by DS was considered according to the effect of preventing differentiation by maintaining the cells in an undifferentiated state, as an index. As the cells, human amnion-derived mesenchymal stem cells in an undifferentiated state were used. Using a normal serum-free cell culture solution as a conditioning solution, a cell preservation solution a was prepared by adding DS to the conditioning solution at 0.1 mg/ml, and a cell preservation solution b was prepared by adding FBS to the conditioning solution at 10%. To each of the cell preservation solutions a and b, the aforementioned stem cells were added at 10^5 cells/ml, respectively, and then cultured for 5 days under normal cell culture conditions (37° C., CO2 concentration of 5%, humidity of 100%). The degrees of differentiation of stem cells before culture and after 5 days of culture were evaluated and compared by flow cytometry. The method followed the method described in Masoumeh Fakhr Taha, Vahideh Hedayati “Isolation, identification and multipotential differentiation of mouse adipose tissue-derived stem cells” Tissue and Cell 42 (2010) 211-216. The evaluation was made according to CD29 and CD44 as undifferentiation markers and CD11b, CD31, and CD45 as markers of differentiation into mesenchymal cells.

[4] = test system: rat corneal epithelial cells; experiment: Cell detaching and suspending effect (Experimental Example 4)
Description: A culture solution in which FBS was added to a normal serum-free cell culture solution in a concentration of 10% (10% FBS cell culture solution) was prepared in a culture dish. To this, rat corneal epithelial cells were added at 10^6 cells/ml and cultured for 24 hours under normal cell culture conditions (37° C., CO2 concentration of 5%, humidity of 100%) to make the cultured cells fully adhere to the culture dish wall which is a scaffold.
The culture solution in the culture dish on which cultured cells obtained as described above had adhered was replaced with each of dextran sulfate aqueous solutions and a dextran aqueous solution, which are respectively obtained by dissolving dextran sulfate (Dextran sodium sulfate MW 36000-50000, available from FUJIFILM Wako Pure Chemical Corporation) and dextran (Dextran MW 35000-50000, available from FUJIFILM Wako Pure Chemical Corporation) in purified water and have concentrations shown in Table 13, and the resultant culture solutions were continuously cultured under normal cell culture conditions (37° C., CO2 concentration of 5%, humidity of 100%). For each adherent cell, detachment and suspension of adherent cells from the dish wall was observed over time. For determination of detachment and suspension, the culture dish was gently shaken manually to observe whether the cells were detached from the dish wall and suspended, and the case where 90% or more of the cells were detached and suspended was determined as detachment and suspension of adherent cells. The results are of N=4. In Table 13, “∘” means that the cells were detached and suspended, and “x” means that the cells were not detached and suspended.

[5] = test system: Chinese hamster fibroblasts; experiment: as above; settings: same experiment as Table 13 with Chinese hamster fibroblasts
[6] = culture dish with calcium phosphate film, 24 hours culture under gentle shaking (FIGS. 1 and 2)
[7] = culture dish without calcium phosphate film (control), 24 hours culture under gentle shaking (FIGS. 3 and 4)

Row | Substance | Effect of improving cell viability (cell protective effect) [1] | Re-adhesion of detached and suspended viable cells [2, 6] | Re-adhesion of detached and suspended viable cells [2, 7] | Positive rate of marker CD11b after culture ([3]; differentiation marker) [%] | Positive rate of marker CD31 after culture ([3]; differentiation marker) [%] | Positive rate of marker CD45 after culture ([3]; differentiation marker) [%] | Positive rate of marker CD29 after culture ([3]; undifferentiation marker) [%] | Positive rate of marker CD44 after culture ([3]; undifferentiation marker) [%] | Detachment and suspension of adherent cells by lapse time after replacement (hour) ([4]; DS 0.1 mg/mL aqueous solution (MW 36000-50000), later lapse times up to 48 h, span not shown) | Detachment and suspension of adherent cells by lapse time after replacement (hour) ([4]; DS 0.1 mg/mL aqueous solution (MW 36000-50000), starts at <12 h) | Detachment and suspension of adherent cells by lapse time after replacement (hour) ([4]; DS 1 mg/mL aqueous solution (MW 36000-50000), later lapse times up to 48 h, span not shown) | Detachment and suspension of adherent cells by lapse time after replacement (hour) ([4]; DS 1 mg/mL aqueous solution (MW 36000-50000), starts at <12 h) | Detachment and suspension of adherent cells by lapse time after replacement (hour) ([4]; DS 10 mg/mL aqueous solution (MW 36000-50000), later lapse times up to 48 h, span not shown) | Detachment and suspension of adherent cells by lapse time after replacement (hour) ([4]; DS 10 mg/mL aqueous solution (MW 36000-50000), starts at <12 h) | Detachment and suspension of adherent cells [5]
1 | heparin sodium [Heparin Na, reference compound] | the cell protective effect was also observed | numerous viable cells were observed adhering | a very small number of viable cells adhered |  |  |  |  |  |  |  |  |  |  |  | 
2 | dextran sulfate [DS] | the cell protective effect was also observed | numerous viable cells were observed adhering | a very small number of viable cells adhered | 19.8 | 8.3 | 7.3 | 98.7 | 62.3 | ∘ (“∘” means that the cells were detached and suspended) | x (“x” means that the cells were not detached and suspended) | ∘ (“∘” means that the cells were detached and suspended) | x (“x” means that the cells were not detached and suspended) | ∘ (“∘” means that the cells were detached and suspended) | x (“x” means that the cells were not detached and suspended) | equivalent results were obtained
